Assay results taken from US20240122990A1, “COMPOSITIONS AND METHODS FOR CARDIOMYOCYTE TRANSPLANTATION” (UNIVERSITY OF WASHINGTON, priority 2021, published 2024).

What was measured:
[1] = system: T-cell activation; conditions: relative to abatacept; cited from earlier work
[2] = system: riPSC-CM cardiomyocyte grafts; assay: Allogeneic rhesus iPSC-CM transplantation into MHC-mismatched rhesus recipients, histopathological immune rejection of the graft; type: in vivo, rhesus macaque (Macaca mulatta); conditions: low-dose subcutaneous TAC alone, trough 5-10 ng/mL; 8 weeks post-transplant; 200×10^6 riPSC-CMs
Excerpt: To identify a minimal, steroid-sparing immunosuppression regimen for first-in-human allogeneic transplantation, a non-human primate (NHP) model was developed where rhesus iPSC-CM are transplanted into normal or infarcted hearts of MHC-mismatched recipients. Allogeneic iPSCs derived from rhesus macaque (Macaca mulatta) were differentiated into a highly enriched population of cardiomyocytes (riPSC-CMs). 200×10^6 riPSC-CMs were transplanted into 11 MHC-mismatched rhesus recipients. The primary study endpoint was the degree of histopathological immune rejection. […] Subsequent studies focused on 8-week engraftment, with promising regimens studied further out to 16 weeks.

Row | Compound | increase in the ability to inhibit T-cell activation in vitro compared to abatacept [1] [fold] | degree of histopathological immune rejection of the graft [2]
1 | Belatacept: derivative of abatacept comprising two amino acid alterations in the CD80/86 binding portion | 10 | 
2 | C=CC[C@@H]1/C=C(\C)C[C@H](C)C[C@H](OC)[C@H]2O[C@@](O)(C(=O)C(=O)N3CCCC[C@H]3C(=O)O[C@H](/C(C)=C/[C@@H]3CC[C@@H](O)[C@H](OC)C3)[C@H](C)[C@@H](O)CC1=O)[C@H](C)C[C@@H]2OC [tacrolimus] |  | moderate to severe rejection
